Patent publication US9650339B2, “Inhibitors of histone demethylases” (Gilead Sciences, Inc., priority 2013, dated 2017)
pEC50, pIC50: −log10 of the molar value.

Experiments:
KDM4C (JMJD2C) = target: T1, KDM4C (JMJD2C) (Homo sapiens, UniProt Q9H3R0); assay: Histone lysine demethylase AlphaLISA assay, KDM4C; type: biochemical; conditions: read-out: KDM4C HDME Inhibition IC50
T1 sequence (Q9H3R0 1-349): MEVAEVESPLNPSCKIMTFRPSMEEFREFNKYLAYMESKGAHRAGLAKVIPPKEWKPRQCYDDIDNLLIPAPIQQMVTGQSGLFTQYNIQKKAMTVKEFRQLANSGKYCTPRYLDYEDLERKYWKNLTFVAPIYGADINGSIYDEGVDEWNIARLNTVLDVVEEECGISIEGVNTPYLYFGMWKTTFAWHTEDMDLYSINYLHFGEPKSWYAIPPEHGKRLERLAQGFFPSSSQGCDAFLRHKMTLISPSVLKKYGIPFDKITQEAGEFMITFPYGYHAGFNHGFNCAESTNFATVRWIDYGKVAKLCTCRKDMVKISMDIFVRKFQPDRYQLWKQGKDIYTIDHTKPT
How it was run: (§1)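 Each enzyme was pre-incubated 10 min in buffer, then 10 min with compound in 3% DMSO solution. The reaction started with biotinylated histone H3 peptide substrate plus 25 μM L-ascorbate and 10 μM α-KG at room temperature. Detection used AlphaLISA acceptor beads, then streptavidin donor beads, in the dark.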

KARPAS620 = assay: Cell proliferation assay KARPAS620; type: cell-based; conditions: Homo sapiens, Karpas-620; KARPAS620, Plasma cell leukemia; method of Example 5
Protocol: (§2) MCF7 cells were seeded in multi well plates at a density optimized to give approximately 90% confluent cells at the time of harvest. Cells were incubated for 24 hours before addition of compound. Compounds were diluted in complete medium and added to the plates in duplicates. The final concentration of DMSO was maximum 0.5%. Complete medium used was DMEM with GlutaMAX containing 10% FBS and pen/strep.
(§3) 120 hours after addition of compounds, the plates were harvested and analyzed by ATPlite 1 Step (Perkin Elmer, cat no 6016739) according to the manufactures recommendation.
(§4) The assays were performed by the method of Example 5 by seeding the relevant cell line at a density optimized to give approximately 90% confluent cells at the time of harvest.

KDM6A (UTX) = KDM6A (UTX) (Homo sapiens, UniProt O15550); assay: Histone lysine demethylase AlphaLISA assay, KDM6A; type: biochemical; conditions: read-out: KDM6A HDME Inhibition IC50
KDM6A (UTX), sequence (O15550 919-1401): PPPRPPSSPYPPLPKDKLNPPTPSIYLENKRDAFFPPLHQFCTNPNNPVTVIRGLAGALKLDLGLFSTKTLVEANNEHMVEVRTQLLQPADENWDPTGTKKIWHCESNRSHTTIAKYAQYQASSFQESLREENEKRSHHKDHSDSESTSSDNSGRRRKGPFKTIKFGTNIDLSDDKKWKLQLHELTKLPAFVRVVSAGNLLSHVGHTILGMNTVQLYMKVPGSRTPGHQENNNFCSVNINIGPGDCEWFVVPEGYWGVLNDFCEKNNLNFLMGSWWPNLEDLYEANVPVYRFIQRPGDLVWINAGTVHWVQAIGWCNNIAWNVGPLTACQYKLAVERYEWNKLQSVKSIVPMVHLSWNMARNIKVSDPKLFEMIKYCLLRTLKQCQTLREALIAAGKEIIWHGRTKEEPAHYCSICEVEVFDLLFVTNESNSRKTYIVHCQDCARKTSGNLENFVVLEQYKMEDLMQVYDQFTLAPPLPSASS
How it was run: as §1

KDM5B (PLU-1) = target: T2, KDM5B (PLU-1) (Homo sapiens, UniProt Q9UGL1); assay: Histone lysine demethylase AlphaLISA assay, KDM5B; type: biochemical; conditions: read-out: KDM5B HDME Inhibition IC50
T2 sequence (Q9UGL1 1-809): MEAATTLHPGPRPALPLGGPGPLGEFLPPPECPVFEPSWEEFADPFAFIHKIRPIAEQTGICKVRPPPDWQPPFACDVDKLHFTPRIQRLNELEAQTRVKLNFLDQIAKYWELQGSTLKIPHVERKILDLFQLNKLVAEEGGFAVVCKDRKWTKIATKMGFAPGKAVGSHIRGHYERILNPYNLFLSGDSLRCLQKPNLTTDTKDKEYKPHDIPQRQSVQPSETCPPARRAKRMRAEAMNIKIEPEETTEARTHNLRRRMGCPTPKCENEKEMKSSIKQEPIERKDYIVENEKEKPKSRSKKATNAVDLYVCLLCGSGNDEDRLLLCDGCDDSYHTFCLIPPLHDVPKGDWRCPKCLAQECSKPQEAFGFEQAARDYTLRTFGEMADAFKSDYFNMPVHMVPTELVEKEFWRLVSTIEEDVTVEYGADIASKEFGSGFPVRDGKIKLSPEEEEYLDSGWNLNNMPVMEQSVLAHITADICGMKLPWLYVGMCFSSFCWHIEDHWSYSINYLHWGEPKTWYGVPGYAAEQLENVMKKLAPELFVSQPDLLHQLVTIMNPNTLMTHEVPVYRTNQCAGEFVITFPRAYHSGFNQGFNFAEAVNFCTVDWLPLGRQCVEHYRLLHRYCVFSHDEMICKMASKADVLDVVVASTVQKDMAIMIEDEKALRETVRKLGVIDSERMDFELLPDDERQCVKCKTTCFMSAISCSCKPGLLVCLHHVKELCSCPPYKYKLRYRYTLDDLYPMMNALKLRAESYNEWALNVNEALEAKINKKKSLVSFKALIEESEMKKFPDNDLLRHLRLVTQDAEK
How it was run: as §1

KDM2B (FBXL10) = target: T3, KDM2B (FBXL10) (Homo sapiens, UniProt Q8NHM5); assay: Histone lysine demethylase AlphaLISA assay, KDM2B; type: biochemical; conditions: read-out: KDM2B HDME Inhibition IC50
T3 sequence (Q8NHM5 1-650): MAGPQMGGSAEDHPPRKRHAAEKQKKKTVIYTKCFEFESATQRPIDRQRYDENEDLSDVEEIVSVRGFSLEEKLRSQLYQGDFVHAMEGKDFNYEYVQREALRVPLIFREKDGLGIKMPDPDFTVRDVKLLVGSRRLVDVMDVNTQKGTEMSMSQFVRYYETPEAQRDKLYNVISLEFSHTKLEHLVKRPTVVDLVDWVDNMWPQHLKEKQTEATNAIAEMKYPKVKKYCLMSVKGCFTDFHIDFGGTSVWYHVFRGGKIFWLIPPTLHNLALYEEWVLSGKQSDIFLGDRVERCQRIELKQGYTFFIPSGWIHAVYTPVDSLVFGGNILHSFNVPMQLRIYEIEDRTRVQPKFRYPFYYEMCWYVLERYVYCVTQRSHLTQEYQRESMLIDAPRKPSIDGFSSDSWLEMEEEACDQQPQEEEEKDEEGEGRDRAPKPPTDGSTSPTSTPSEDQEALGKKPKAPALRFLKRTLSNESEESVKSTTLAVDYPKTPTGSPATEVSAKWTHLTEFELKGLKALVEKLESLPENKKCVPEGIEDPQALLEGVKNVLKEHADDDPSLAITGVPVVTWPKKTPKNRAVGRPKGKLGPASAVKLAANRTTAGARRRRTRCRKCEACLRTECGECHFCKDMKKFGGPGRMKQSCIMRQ
How it was run: as §1

MCF7 cells = assay: Cell proliferation assay MCF7; type: cell-based; conditions: MCF7 human breast cancer cells; 120 hours; ATPlite 1 Step
How it was run: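 Cells grown 24 h in DMEM GlutaMAX/10% FBS, then exposed to compounds in duplicate (≤0.5% DMSO) for 120 h. Viability read as ATP luminescence (ATPlite 1 Step). Seeding set to reach ~90% confluence at harvest.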

MOLP8 = assay: Cell proliferation assay MOLP8; type: cell-based; conditions: Homo sapiens, MOLP-8; MOLP8, Myeloma; method of Example 5
Protocol: as §2, §3, §4

Compound: CCN(CCN(C)C)C(=O)CNCc1cc(/C=N/CC(CO)C2CCCCC2)ccn1 (stereo not shown) [Compound 81, 2-[({4-[[(2-cyclohexyl-3-hydroxypropyl)-imino]methyl]pyridin-2-yl}methyl)-amino]-N-[2-(dimethylamino)-ethyl]-N-ethylacetamide]
- pIC50 (KDM4C (JMJD2C)): 5.60 to 6.60
- pEC50 (KARPAS620): > 6.60
- pIC50 (KDM6A (UTX)): < 5.60
- pIC50 (KDM5B (PLU-1)): > 6.60
- pIC50 (KDM2B (FBXL10)): < 5.60
- pEC50 (MCF7 cells): > 6.60
- pEC50 (MOLP8): > 6.60
